The source of these data is ChEMBL document CHEMBL4219268, “Synthesis and evaluation of N-(4-benzylphenyl)piperazines as VGF inducers” (Bioorg Med Chem Lett, 2018).

The structures appear in SMILES notation.

Series [1] deals with SH-SY5Y. Kind of series: Induction of VGF gene expression in human SH-SY5Y cells at 3 uM after 24 hrs by qRT-PCR analysis relative to control. In kind it is functional. On the technique in general: Quantitative PCR measures a nucleic acid by following its amplification.
The target of another series is CYP3A4 (Homo sapiens, UniProt P08684). Kind of series: Inhibition of CYP3A4 in human liver microsomes using testosterone as substrate assessed as residual activity at 10 uM preincubated for 30 mins followed by substrate addition measured after 10 mins in presence of NADPH by LC-MS/MS analysis. In kind it is ADME. The note with it: probe testosterone, read-out: Activity. On the technique in general: Liver microsomes are a subcellular fraction often used to study metabolism.
Chain of CYP3A4 (P08684 whole entry): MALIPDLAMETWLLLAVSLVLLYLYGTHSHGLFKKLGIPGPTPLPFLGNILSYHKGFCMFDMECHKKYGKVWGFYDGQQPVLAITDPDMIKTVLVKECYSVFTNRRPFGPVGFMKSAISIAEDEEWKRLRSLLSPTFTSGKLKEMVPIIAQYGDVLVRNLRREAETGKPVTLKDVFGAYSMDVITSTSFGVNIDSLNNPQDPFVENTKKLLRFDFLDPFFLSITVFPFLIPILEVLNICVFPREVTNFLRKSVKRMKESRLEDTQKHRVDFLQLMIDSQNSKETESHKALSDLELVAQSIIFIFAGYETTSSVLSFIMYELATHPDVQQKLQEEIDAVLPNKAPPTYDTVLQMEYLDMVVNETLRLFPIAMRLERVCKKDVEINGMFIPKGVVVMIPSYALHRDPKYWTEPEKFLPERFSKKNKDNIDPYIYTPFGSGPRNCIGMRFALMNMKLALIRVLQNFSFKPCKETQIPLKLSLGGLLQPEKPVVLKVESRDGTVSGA

Series [2] in a line: Drug metabolism in human liver microsomes assessed as metabolic rate per mg protein at 1 uM measured at 3 to 30 mins by LC-MS/MS analysis. In kind it is ADME, microsome.
Series [3] relates to SH-SY5Y. Kind of series: Cytoprotective activity against tunicamycin-induced ER stress in human SH-SY5Y cells assessed as cell viability at 3 uM preincubated for 1 hr followed by tunicamycin addition measured after 48 hrs by WST-8 assay (reference value: 45 +/- 6.6%). The class given is functional. Conditions: read-out: Activity. On the technique in general: Tetrazolium dyes change colour on reduction, which living cells bring about.

Series [4] deals with SH-SY5Y. Kind of series: Cytoprotective activity against tunicamycin-induced ER stress in human SH-SY5Y cells assessed as cell viability at 3 uM preincubated for 1 hr followed by tunicamycin addition measured after 48 hrs by WST-8 assay relative to SUN N8075. In kind it is functional. The note with it: read-out: Activity.
Series [5] deals with SH-SY5Y. Kind of series: Induction of VGF gene expression in human SH-SY5Y cells at 3 uM after 24 hrs by qRT-PCR analysis relative to SUN N8075. In kind it is functional.

Turning to `CS(=O)(=O)O.CS(=O)(=O)O.Cc1cc(OCC(O)CN2CCN(c3ccc(Cc4ccc(F)cc4)cc3)CC2)c(C)c(C)c1N` (stereo unspecified), the “fold change (FC)” value in the series on SH-SY5Y [1] stood at 5.1. Further, the activity at 10 min, 10 µM on CYP3A4 came to 57%. In addition, the Drug metabolism in series [2] was 153 pmol/min. In the series on SH-SY5Y [3], the viability at 3 µM was 82%.

Regarding `Cc1cc(S(N)(=O)=O)ccc1OCC(F)CN1CCN(c2ccc(Cc3ccc(F)cc3)cc2)CC1` (stereo unspecified), the viability at 3 µM with SH-SY5Y [4] was 105%. The compound also returned an Activity in the series with SH-SY5Y [5] of 114%. The activity at 10 min, 10 µM at CYP3A4 came to 108%. Moreover, the Drug metabolism in series [2] is reported as 17 pmol/min.

Consider `NC(=O)c1ccc(OCC(F)CN2CCN(c3ccc(Cc4ccc(F)cc4)cc3)CC2)cc1` (stereo unspecified), for which the viability at 3 µM in the series on SH-SY5Y [4] worked out at 21%. This compound showed an Activity with SH-SY5Y [5] of 20%. Further, the activity at 10 min, 10 µM on CYP3A4 was 76%. Moreover, the Drug metabolism in series [2] is given as 34 pmol/min.

Consider `Cl.Cl.Cl.Fc1ccc(Cc2ccc(N3CCN(CC(F)(F)COc4ccc5ncccc5c4)CC3)cc2)cc1`, for which the viability at 3 µM in the series with SH-SY5Y [4] came out at 67%. The same compound returned an Activity with SH-SY5Y [5] of 68%. Besides, the activity at 10 min, 10 µM at CYP3A4 amounted to 93%. In addition, the Drug metabolism in series [2] worked out at 34 pmol/min.

For `Cl.Cl.Cl.Fc1ccc(Cc2ccc(N3CCN(CC(F)COc4ccncc4)CC3)cc2)cc1` (stereo unspecified), the viability at 3 µM in the series on SH-SY5Y [4] was 13%. Further, the Activity in the series with SH-SY5Y [5] is 13%. The activity at 10 min, 10 µM at CYP3A4 amounted to 101%. Moreover, in series [2], the Drug metabolism is on record as less than 10 pmol/min.

`Cc1cc(OCC(F)CN2CCN(c3ccc(Cc4ccc(F)cc4)cc3)CC2)cc(C)n1.Cl.Cl.Cl` (stereo unspecified): the viability at 3 µM with SH-SY5Y [4] stood at 82%. The Activity with SH-SY5Y [5] was 79%. Further, the activity at 10 min, 10 µM on CYP3A4 was found to be 67%. In addition, the Drug metabolism in series [2] came to 41 pmol/min.

Turning to `Cl.Fc1ccc(Cc2ccc(N3CCN(CCCOc4ccc5ncccc5c4)CC3)cc2)cc1`, the viability at 3 µM with SH-SY5Y [4] was found to be 75%. Besides, the Activity in the series on SH-SY5Y [5] was determined as 52%. For the same compound, the activity at 10 min, 10 µM on CYP3A4 worked out at 94%. In addition, the Drug metabolism in series [2] is 47 pmol/min.

Regarding `OC(COc1ccc2ncccc2c1)CN1CCN(c2ccc(Cc3ccc(F)cc3)cc2)CC1` (stereo unspecified), in the series with SH-SY5Y [4], the viability at 3 µM was found to be 64%. This compound also displayed an Activity in the series on SH-SY5Y [5] of 36%. Moreover, the activity at 10 min, 10 µM at CYP3A4 stood at 70%. Also, the Drug metabolism in series [2] turned out to be 122 pmol/min.

As for `O=C1CCc2cc(OCC(O)CN3CCN(c4ccc(Cc5ccc(F)cc5)cc4)CC3)ccc2N1` (stereo unspecified), the viability at 3 µM in the series on SH-SY5Y [4] was found to be 33%. The compound further displayed an Activity in the series on SH-SY5Y [5] of 32%. Besides, the activity at 10 min, 10 µM at CYP3A4 was 88%. In addition, the Drug metabolism in series [2] is on record as 27 pmol/min.

Regarding `Cc1cc(OC[C@@H](F)CN2CCN(c3ccc(Cc4ccc(F)cc4)cc3)CC2)cc(C)n1.Cl`, the viability at 3 µM in the series on SH-SY5Y [4] was 96%. For the same compound, the Activity with SH-SY5Y [5] is reported as 68%. For the same compound, the activity at 10 min, 10 µM at CYP3A4 was 80%. The Drug metabolism in series [2] was 37 pmol/min.

Turning to `Cc1cc(OC[C@H](F)CN2CCN(c3ccc(Cc4ccc(F)cc4)cc3)CC2)cc(C)n1.Cl`, the viability at 3 µM with SH-SY5Y [4] is 93%. The compound further came in with an Activity in the series on SH-SY5Y [5] of 78%. Further, the activity at 10 min, 10 µM at CYP3A4 came to 83%. The Drug metabolism in series [2] stood at 71 pmol/min.

On to `OC(COc1ccc2[nH]ccc2c1)CN1CCN(c2ccc(Cc3ccc(F)cc3)cc2)CC1` (stereo unspecified), for which, in the series with SH-SY5Y [4], the viability at 3 µM was 43%. In the series with SH-SY5Y [5], the Activity is given as 30%. Besides, the activity at 10 min, 10 µM at CYP3A4 worked out at 59%. The Drug metabolism in series [2] is on record as 79 pmol/min.

As for `Cc1cc(OCC(F)CN2CCN(c3ccc(Cc4ccc(F)cc4)cc3)CC2)c(C)c(C)c1N.Cl.Cl.Cl` (stereo unspecified), the viability at 3 µM with SH-SY5Y [4] was 94%. For the same compound, the Activity in the series with SH-SY5Y [5] worked out at 126%. The activity at 10 min, 10 µM on CYP3A4 was determined as 75%. The Drug metabolism in series [2] is reported as 106 pmol/min.

As for `Cl.OC(COc1ccccc1)CN1CCN(c2ccc(Cc3ccc(F)cc3)cc2)CC1` (stereo unspecified), the viability at 3 µM with SH-SY5Y [4] is 43%. The same compound came in with an Activity with SH-SY5Y [5] of 8%. Further, the Drug metabolism in series [2] was 28 pmol/min.

With `NS(=O)(=O)c1ccc(OCC(F)CN2CCN(c3ccc(Cc4ccc(F)cc4)cc3)CC2)cc1` (stereo unspecified), in the series with SH-SY5Y [4], the viability at 3 µM was found to be 88%. In addition, the Activity in the series on SH-SY5Y [5] came to 71%. In addition, the activity at 10 min, 10 µM on CYP3A4 came to 99%. In addition, the Drug metabolism in series [2] is given as 12 pmol/min.

On to `Cc1cc(C)c(C)c(OCC(F)CN2CCN(c3ccc(Cc4ccc(F)cc4)cc3)CC2)c1.Cl.Cl` (stereo unspecified), for which the viability at 3 µM in the series with SH-SY5Y [4] came out at 60%. Besides, the Activity in the series on SH-SY5Y [5] is 75%. For the same compound, the activity at 10 min, 10 µM at CYP3A4 is 107%. Moreover, the Drug metabolism in series [2] amounted to 25 pmol/min.

In the case of `Cc1cc(S(N)(=O)=O)c(C)c(C)c1OCC(F)CN1CCN(c2ccc(Cc3ccc(F)cc3)cc2)CC1` (stereo unspecified), the viability at 3 µM with SH-SY5Y [4] is 106%. In the series with SH-SY5Y [5], this compound displayed an Activity of 172%. For the same compound, the activity at 10 min, 10 µM on CYP3A4 amounted to 92%. Further, the Drug metabolism in series [2] came out at 32 pmol/min.

`Cl.Cl.Cl.Fc1ccc(Cc2ccc(N3CCN(CC(F)COc4ccc5ncccc5c4)CC3)cc2)cc1` (stereo unspecified): the viability at 3 µM in the series on SH-SY5Y [4] is 89%. The Activity in the series on SH-SY5Y [5] is on record as 77%. Also, on CYP3A4, the activity at 10 min, 10 µM was 82%. Also, the Drug metabolism in series [2] is 79 pmol/min.
